According to patent US20120034613A1, “Apparatus and Method for Testing Relationships Between Gene Expression and Physical Appearance of Skin” (NSE Products, Inc., priority 2010, published 2012):

Test system: EpidermFT™ Skin Model (EFT-400) full thickness skin cultures
Assay: Affymetrix GeneChip HG U133 Plus 2.0 microarray global gene expression, agent-exposed vs untreated skin cultures
Type: cell-based, human
Conditions: 24 hr; for Direction / Fold change: Salicin 0.5%
[1] = 210424_s_at GOLGA8A /// GOLGA8B

OCc1ccccc1O[C@@H]1O[C@H](CO)[C@@H](O)[C@H](O)[C@H]1O [Salicin, 2-(Hydroxymethyl)phenyl β-D-glucospyranoside] was tested, and the “Fold change SPTLC2 (203128_at)” value (0.5% vs untreated, down) was 3.78, the “Fold change SPTLC2 (225095_at)” value (0.5% vs untreated, down) was 3.474 and the “Fold change ST14 (216905_s_at)” value (0.5% vs untreated, down) was 3.604. For the same compound, the “Fold change STARD5 (213820_s_at)” value (0.5% vs untreated, down) was 3.436, the “Fold change STON2 (227461_at)” value (0.5% vs untreated, down) was 3.288 and the “Fold change STOX2 (231969_at)” value (0.5% vs untreated, down) was 3.5. The “Fold change STYK1 (220030_at)” value (0.5% vs untreated, down) was 3.584, the “Fold change SYK (207540_s_at)” value (0.5% vs untreated, down) was 3.163 and the “Fold change SYNE2 (202761_s_at)” value (0.5% vs untreated, down) was 3.62. For the same compound, the “Fold change SYTL1 (227134_at)” value (0.5% vs untreated, down) was 3.294, the “Fold change TACC2 (211382_s_at)” value (0.5% vs untreated, down) was 3.335 and the “Fold change TGFA (205015_s_at)” value (0.5% vs untreated, down) was 3.134. The “Fold change TGM3 (206004_at)” value (0.5% vs untreated, down) was 3.783, the “Fold change THBD (203887_s_at)” value (0.5% vs untreated, down) was 3.137 and the “Fold change TIAM1 (206409_at)” value (0.5% vs untreated, down) was 3.792. The “Fold change TM7SF3 (217974_at)” value (0.5% vs untreated, down) was 3.241, the “Fold change TMEM54 (225536_at)” value (0.5% vs untreated, down) was 3.354 and the “Fold change TMEM184A (1558281_a_at)” value (0.5% vs untreated, down) was 3.052. The “Fold change TPD52L1 (203786_s_at)” value (0.5% vs untreated, down) was 3.196, the “Fold change TRIM7 (223694_at)” value (0.5% vs untreated, down) was 3.302 and the “Fold change TRIM7 (239694_at)” value (0.5% vs untreated, down) was 3.174. For the same compound, the “Fold change TRIM14 (203147_s_at)” value (0.5% vs untreated, down) was 3.14, the “Fold change TRIM14 (203148_s_at)” value (0.5% vs untreated, down) was 3.658 and the “Fold change TRIM25 (224806_at)” value (0.5% vs untreated, down) was 3.869. For the same compound, the “Fold change TST (209605_at)” value (0.5% vs untreated, down) was 3.038, the “Fold change UBL3 (201534_s_at)” value (0.5% vs untreated, down) was 3.354 and the “Fold change UGT1A1 /// UGT1A10 /// UGT1A4 /// UGT1A6 /// UGT1A8 /// UGT1A9 (207126_x_at)” value (0.5% vs untreated, down) was 3.18. For the same compound, the “Fold change UPK1B (210065_s_at)” value (0.5% vs untreated, down) was 3.412, the “Fold change USP2 (229337_at)” value (0.5% vs untreated, down) was 3.391 and the “Fold change USP6NL (238164_at)” value (0.5% vs untreated, down) was 3.19. The “Fold change VAMP8 (202546_at)” value (0.5% vs untreated, down) was 3.922, the “Fold change VWA5A (210102_at)” value (0.5% vs untreated, down) was 3.897 and the “Fold change WNT3 (229103_at)” value (0.5% vs untreated, down) was 3.218. The “Fold change XG (1554062_at)” value (0.5% vs untreated, down) was 3.378, the “Fold change ZBTB7C (227782_at)” value (0.5% vs untreated, down) was 3.288 and the “Fold change ZNF91 (206059_at)” value (0.5% vs untreated, down) was 3.205. The Direction (63825_at ABHD2) was “up”, the Fold change (63825_at ABHD2) was 2.157 and the Direction (201467_s_at NQO1) was “up”. For the same compound, the Fold change (201467_s_at NQO1) was 2.122, the Direction (201468_s_at NQO1) was “up” and the Fold change (201468_s_at NQO1) was 2.093. The Direction (202724_s_at FOXO1) was “up”, the Fold change (202724_s_at FOXO1) was 2.098 and the Direction (202952_s_at ADAM12) was “up”. For the same compound, the Fold change (202952_s_at ADAM12) was 2.155, the Direction (203066_at GALNAC4S-6ST) was “up” and the Fold change (203066_at GALNAC4S-6ST) was 2.113. The Direction (203426_s_at IGFBP5) was “up”, the Fold change (203426_s_at IGFBP5) was 2.075 and the Direction (203518_at LYST) was “up”. For the same compound, the Fold change (203518_at LYST) was 2.15, the Direction (203740_at MPHOSPH6) was “up” and the Fold change (203740_at MPHOSPH6) was 2.138. The Direction (203853_s_at GAB2) was “up”, the Fold change (203853_s_at GAB2) was 2.114 and the Direction (204115_at GNG11) was “up”. The Fold change (204115_at GNG11) was 2.108, the Direction (204396_s_at GRK5) was “up” and the Fold change (204396_s_at GRK5) was 2.087. The Direction (204420_at FOSL1) was “up”, the Fold change (204420_at FOSL1) was 2.141 and the Direction (204456_s_at GAS1) was “up”. The Fold change (204456_s_at GAS1) was 2.089, the Direction (204742_s_at PDS5B) was “up” and the Fold change (204742_s_at PDS5B) was 2.139. For the same compound, the Direction (204790_at SMAD7) was “up”, the Fold change (204790_at SMAD7) was 2.151 and the Direction (205110_s_at FGF13) was “up”. For the same compound, the Fold change (205110_s_at FGF13) was 2.158, the Direction (208415_x_at ING1) was “up” and the Fold change (208415_x_at ING1) was 2.15. The Direction (209436_at SPON1) was “up”, the Fold change (209436_at SPON1) was 2.145 and the Direction (210145_at PLA2G4A) was “up”. For the same compound, the Fold change (210145_at PLA2G4A) was 2.072, the Direction (210355_at PTHLH) was “up” and the Fold change (210355_at PTHLH) was 2.144. The Direction [1] was “up”, the Fold change [1] was 2.127 and the Direction (210519_s_at NQO1) was “up”. For the same compound, the Fold change (210519_s_at NQO1) was 2.116, the Direction (210665_at TFPI) was “up” and the Fold change (210665_at TFPI) was 2.091. The Direction (210841_s_at NRP2) was “up”, the Fold change (210841_s_at NRP2) was 2.133 and the Direction (211725_s_at BID) was “up”. The Fold change (211725_s_at BID) was 2.092, the Direction (211981_at COL4A1) was “up” and the Fold change (211981_at COL4A1) was 2.121. The Direction (212298_at NRP1) was “up”, the Fold change (212298_at NRP1) was 2.073 and the Direction (212554_at CAP2) was “up”. The Fold change (212554_at CAP2) was 2.082, the Direction (213032_at NFIB) was “up” and the Fold change (213032_at NFIB) was 2.146. For the same compound, the Direction (213033_s_at NFIB) was “up”, the Fold change (213033_s_at NFIB) was 2.125 and the Direction (213093_at PRKCA) was “up”. For the same compound, the Fold change (213093_at PRKCA) was 2.125, the Direction (213790_at ADAM12) was “up” and the Fold change (213790_at ADAM12) was 2.085. For the same compound, the Direction (213994_s_at SPON1) was “up”, the Fold change (213994_s_at SPON1) was 2.086 and the Direction (214014_at CDC42EP2) was “up”. The Fold change (214014_at CDC42EP2) was 2.119, the Direction (214211_at FTH1) was “up” and the Fold change (214211_at FTH1) was 2.154. For the same compound, the Direction (214913_at ADAMTS3) was “up”, the Fold change (214913_at ADAMTS3) was 2.145 and the Direction (215012_at ZNF451) was “up”. The Fold change (215012_at ZNF451) was 2.114, the Direction (215785_s_at CYFIP2) was “up” and the Fold change (215785_s_at CYFIP2) was 2.107.
